# Biological target: ERK2 kinase (Homo sapiens (Human), UniProt P28482)
# Test: In vitro enzyme activity assay, ERK2 kinase (Z'-LYTE)
# Format: biochemical
# Conditions: class symbols; read-out: ERK2 IC50
# Procedure: Half inhibitory activity of the compounds of the invention against ERK2 kinase (IC50 value) was determined in this Example.
# • Enzyme: extracellular signal-regulated kinase ERK2 kinase (PV3595, Invitrogen) • Kit: Z′-LYTE® Protein Kinase Assay Kit-Ser/Thr 3 Peptide (PV3176, Invitrogen) • Kit components: The substrate Z′-LYTE™ Ser/Thr 3 Peptide (PV3200) • The phosphorylation substrate Z′-LYTE™ Ser/Thr 3 Phospho-peptide (PV3215) • 5× kinase buffer: 250 mM HEPES (pH 7.5), 50 mM MgCl2, • 5 mM EGTA, 0.05% BRIJ-35 (PV3189, Invitrogen) • ATP (PV3227, Invitrogen) • Development Reagent A (PV3295, Invitrogen) • Development Buffer (P3127, Invitrogen) • Stop Reagent (P3094, Invitrogen) • Microplate reader: The multil-mode microplate reader PerkinElmer EnVision® • Microplate: black shallow 384-well microplate (6008269, PerkinElmer) (2). Assay Protocol:
# The substrate Z′-LYTE™ Ser/Thr 3 Peptide, the phosphorylation substrate Z′-LYTE™ Ser/Thr 3 Phospho-peptide, 1× kinase buffer (5× kinase buffer was diluted with ultra pure water by five times), ATP, Development Reagent A, Development Buffer, Stop Reagent were balanced to room temperature for use. The screening concentrations for detecting the effect of the compounds of the invention on the ERK kinase activity were seven 3-fold serial dilutions starting from 1 μM (from 0.2 μM for the positive drug control) using 4% DMSO as co-solvent. 5 μL enzyme system (50 mM HEPES pH 7.5, 1 mM EGTA, 10 mM MgCl2, 0.01% Brij-35, 4 uM substrate, 0.8 ng/μL enzyme), 2.5 μL Compound, 2.5 μL 400 μM ATP were added into 384 well microplate, followed by incubation at room temperature for 60 min in the dark. After the reaction was completed, 5 μl the developing agent (Development Reagent A) diluted with the developing buffer (Development Buffer) was added to all reaction wells, followed by incubation at the room temperature for 60 min in the dark. 5 μL the terminating agent was added to each well to terminate the reaction. The fluorescence was determined using the multil-mode microplate reader PerkinElmer EnVision® (excitation wavelength 400 nm, emission wavelength 460 nm and 528 nm).
# The inhibition rate of each well was calculated from 100% phosphorylation substrate well and 0% phosphorylation substrate well using the data analysis method below: phosphorylation %=1−{(emission rate×F100%−C100%)/[C0%−C100%+emission rate×(F100%−F0%)]}×100 inhibition %=100×(1−phosphorylation % of the test compound well/phosphorylation % of the 0% inhibition control) • wherein: • emission rate=fluorescence emission of the sample at 445 nm/fluorescence emission of the sample at 520 nm • F100%=the average fluorescence emission of the control well of 100% phosphorylation substrate at 520 nm • F0%=the average fluorescence emission of the control well of 0% phosphorylation substrate at 520 nm • C100%=the average fluorescence emission of the control well of 100% phosphorylation substrate at 445 nm • C0%=the average fluorescence emission of the control well of 0% phosphorylation substrate at 445 nm
# Tests were carried out in duplicate. IC50 values were calculated from the inhibition of the kinase by the test compounds at a range of different concentrations.
# ERK2 kinase, sequence (P28482 whole entry): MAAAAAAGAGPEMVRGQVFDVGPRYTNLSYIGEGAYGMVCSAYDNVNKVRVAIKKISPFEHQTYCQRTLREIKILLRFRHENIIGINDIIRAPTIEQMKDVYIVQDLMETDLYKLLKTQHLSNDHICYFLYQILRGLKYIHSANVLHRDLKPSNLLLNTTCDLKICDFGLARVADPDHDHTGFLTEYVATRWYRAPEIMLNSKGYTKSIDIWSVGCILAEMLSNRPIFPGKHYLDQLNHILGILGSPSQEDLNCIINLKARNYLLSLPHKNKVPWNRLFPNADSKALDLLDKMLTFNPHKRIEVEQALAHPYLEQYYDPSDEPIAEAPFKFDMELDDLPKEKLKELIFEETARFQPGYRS
row,SMILES,IC50
1,"CC1Cc2cc(-c3ccnc(Nc4ccnn4C)n3)cc(F)c2N1C(=O)Cc1cccnc1Cl (stereo not drawn) [Example P32, 2-(2-chloropyridin-3-yl)-1-(7-fluoro-2-methyl-5-(2-((1-methyl-1H-pyrazol-5-yl)amino)pyrimidin-4-yl)indolin-1-yl)ethan-1-one]",≤ 10 nM
2,"Cn1nccc1Nc1nccc(-c2cc(F)c3c(c2)CCN3C(=O)Cc2cccnc2Cl)n1 [Example P10, 2-(2-chloropyridin-3-yl)-1-(7-fluoro-5-(2-((1-methyl-1H-pyrazol-5-yl)amino)pyrimidin-4-yl)indolin-1-yl)ethan-1-one]",≤ 10 nM
3,"[2H]C([2H])([2H])n1nccc1Nc1cc(-c2cc(F)c3c(c2)CCN3C(=O)Cc2cccnc2Cl)ccn1 [Example P46, 2-(2-chloropyridin-3-yl)-1-(7-fluoro-5-(2-((1-(deuteriomethyl)-1H-pyrazol-5-yl)amino)pyridin-4-yl)indolin-1-yl)ethan-1-one]",≤ 10 nM
4,"O=C(Cc1cccnc1Cl)N1CCc2cc(-c3ccnc(NC4CC(O)C4)c3)cc(F)c21 (racemic) [Example P53, 2-(2-chloropyridin-3-yl)-1-(7-fluoro-5-(2-((3-hydroxylcyclobutyl)amino)pyridin-4-yl)indolin-1-yl)ethan-1-one]",100 to 1000 nM
5,"Cn1nccc1Nc1nccc(-c2cc(F)c3c(c2F)CCN3C(=O)Cc2cccnc2Cl)n1 [Example P50, 2-(2-chloropyridin-3-yl)-1-(4,7-difluoro-5-(2-((1-methyl-1H-pyrazol-5-yl)amino)pyrimidin-4-yl)indolin-1-yl)ethan-1-one]",100 to 1000 nM
6,"O=C(Cc1cccnc1Cl)N1CCc2cc(-c3ccnc(NC4CCC(O)CC4)n3)cc(F)c21 (stereo not drawn) [Example P3, 2-(2-chloropyridin-3-yl)-1-(7-fluoro-5-(2-((4-hydroxylcyclohexyl)amino)pyrimidin-4-yl)indolin-1-yl)ethan-1-one]",10 to 100 nM
7,"O=C(Cc1cccnc1Cl)N1CCc2cc(-c3ccnc(NC4CC4)c3)cc(F)c21 [Example P61, 2-(2-chloropyridin-3-yl)-1-(5-(2-(cyclopropylamino)pyridin-4-yl)-7-fluoroindolin-1-yl)ethan-1-one]",10 to 100 nM
8,"Cn1nccc1Nc1nccc(-c2cc(F)c3c(c2)CCN3C(=O)Cc2cc(F)ccc2F)n1 [Example P39, 2-(2,5-difluorophenyl)-1-(7-fluoro-5-(2-((1-methyl-1H-pyrazol-5-yl)amino)pyrimidin-4-yl)indolin-1-yl)ethan-1-one]",100 to 1000 nM
9,"Cn1nccc1Nc1cc(-c2cc(F)c3c(c2)CCN3C(=O)CCc2cccnc2Cl)ccn1 [Example P55, 3-(2-chloropyridin-3-yl)-1-(7-fluoro-5-(2-((1-methyl-1H-pyrazol-5-yl)amino)pyridin-4-yl)indolin-1-yl)propan-1-one]",10 to 100 nM
10,"Cn1nccc1Nc1cc(-c2cc(F)c3c(c2)CCN3C(=O)Cc2ccccc2Cl)ccn1 [Example P31, 2-(2-chlorophenyl)-1-(7-fluoro-5-(2-((1-methyl-1H-pyrazol-5-yl)amino)pyridin-4-yl)indolin-1-yl)ethan-1-one]",≤ 10 nM
11,"O=C(Cc1cccnc1Cl)N1CCc2cc(-c3ccnc(NCCO)n3)cc(F)c21 [Example P2, 2-(2-chloropyridin-3-yl)-1-(7-fluoro-5-(2-((2-hydroxylethyl)amino)pyrimidin-4-yl)indolin-1-yl)ethan-1-one]",10 to 100 nM
12,"Cn1nccc1Nc1nccc(-c2cc(F)c3c(c2)CCN3C(=O)Cc2ccc(F)cc2Cl)n1 [Example P36, 2-(2-chloro-4-fluorophenyl)-1-(7-fluoro-5-(2-((1-methyl-1H-pyrazol-5-yl)amino)pyrimidin-4-yl)indolin-1-yl)ethan-1-one]",10 to 100 nM
13,"CC(CO)Nc1cc(-c2cc(F)c3c(c2)CCN3C(=O)Cc2cccnc2Cl)ccn1 (stereo not drawn) [Example P8, 2-(2-chloropyridin-3-yl)-1-(7-fluoro-5-(2-((1-hydroxylprop-2-yl)amino)pyridin-4-yl)indolin-1-yl)ethan-1-one]",100 to 1000 nM
14,O=C(Cc1cccnc1Cl)N1CCc2cc(-c3ccnc(N[C@H]4C[C@@H](O)C4)c3)cc(F)c21 [Example P40],10 to 100 nM
15,"Cn1nccc1Nc1cc(-c2cc(Cl)c3c(c2)CCN3C(=O)Cc2cccnc2Cl)ccn1 [Example P14, 1-(7-chloro-5-(2-((1-methyl-1H-pyrazol-5-yl)amino)pyridin-4-yl)indolin-1-yl)-2-(2-chloropyridin-3-yl)ethan-1-one]",10 to 100 nM
16,"CC(CO)Nc1nccc(-c2cc(F)c3c(c2)CCN3C(=O)Cc2cccnc2Cl)n1 (stereo not drawn) [Example P1, 2-(2-chloropyridin-3-yl)-1-(7-fluoro-5-(2-((1-hydroxylprop-2-yl)amino)pyrimidin-4-yl)indolin-1-yl)ethan-1-one]",100 to 1000 nM
17,"Cn1nccc1Nc1nccc(-c2cc(F)c3c(c2)CCN3C(=O)Cc2cc(Cl)ccc2F)n1 [Example P34, 2-(5-chloro-2-fluorophenyl)-1-(7-fluoro-5-(2-((1-methyl-1H-pyrazol-5-yl)amino)pyrimidin-4-yl)indolin-1-yl)ethan-1-one]",10 to 100 nM
18,"Cn1nccc1Nc1cc(-c2cc(F)c3c(c2)CCN3C(=O)Cc2cccnc2Cl)ncn1 [Example P44, 2-(2-chloropyridin-3-yl)-1-(7-fluoro-5-(6-((1-methyl-1H-pyrazol-5-yl)amino)pyrimidin-4-yl)indolin-1-yl)ethan-1-one]",10 to 100 nM
19,"Cn1nccc1Nc1nccc(-c2cc(F)c3c(c2)CCN3C(=O)Cc2ccc(Cl)cc2)n1 [Example P19, 2-(4-chlorophenyl)-1-(7-fluoro-5-(2-((1-methyl-1H-pyrazol-5-yl)amino)pyrimidin-4-yl)indolin-1-yl)ethan-1-one]",100 to 1000 nM
20,"Cn1nccc1Nc1nccc(-c2cc(F)c3c(c2)CCN3C(=O)Cc2ccccc2F)n1 [Example P17, 1-(7-fluoro-5-(2-((1-methyl-1H-pyrazol-5-yl)amino)pyrimidin-4-yl)indolin-1-yl)-2-(2-fluorophenyl)ethan-1-one]",10 to 100 nM
21,"Cn1nccc1Nc1nccc(-c2cc(F)c3c(c2)CCN3C(=O)Cc2cccc(F)c2Cl)n1 [Example P54, 2-(2-chloro-3-fluorophenyl)-1-(7-fluoro-5-(2-((1-methyl-1H-pyrazol-5-yl)amino)pyrimidin-4-yl)indolin-1-yl)ethan-1-one]",10 to 100 nM
22,"O=C(Cc1cccnc1Cl)N1CCc2cc(-c3ccnc(NC4CCOC4)n3)cc(F)c21 (stereo not drawn) [Example P6, 2-(2-chloropyridin-3-yl)-1-(7-fluoro-5-(2-((tetrahydrofuran-3-yl)amino)pyrimidin-4-yl)indolin-1-yl)ethan-1-one]",10 to 100 nM
23,"Cn1nccc1Nc1nccc(-c2cc(F)c3c(c2)CCN3C(=O)Cc2ccc(F)cc2F)n1 [Example P12, 2-(2,4-difluorophenyl)-1-(7-fluoro-5-(2-((1-methyl-1H-pyrazol-5-yl)amino)pyrimidin-4-yl)indolin-1-yl)ethan-1-one]",10 to 100 nM
24,"Cc1ncccc1CC(=O)N1CCc2cc(-c3ccnc(Nc4ccnn4C)c3)cc(F)c21 [Example P45, 1-(7-fluoro-5-(2-((1-methyl-1H-pyrazol-5-yl)amino)pyridin-4-yl)indolin-1-yl)-2-(2-methylpyridin-3-yl)ethan-1-one]",≤ 10 nM
25,"Cn1nccc1Nc1nccc(-c2cc(F)c3c(c2)CCN3C(=O)Cc2ccncc2Cl)n1 [Example P37, 2-(3-chloropyridin-4-yl)-1-(7-fluoro-5-(2-((1-methyl-1H-pyrazol-5-yl)amino)pyrimidin-4-yl)indolin-1-yl)ethan-1-one]",10 to 100 nM

# Same assay, conditions: read-out: IC50 against ERK2 kinase
row,SMILES,IC50
1,"Cn1nccc1Nc1nccc(-c2cc(F)c3c(c2)CCN3C(=O)Cc2cccnc2Cl)n1 [Example P10, 2-(2-chloropyridin-3-yl)-1-(7-fluoro-5-(2-((1-methyl-1H-pyrazol-5-yl)amino)pyrimidin-4-yl)indolin-1-yl)ethan-1-one]",6.1 nM
2,"CC1CN(C(=O)Cc2cccnc2Cl)c2c(F)cc(-c3ccnc(Nc4ccnn4C)c3)cc21 (stereo not drawn) [Example P59, 2-(2-chloropyridin-3-yl)-1-(7-fluoro-3-methyl-5-(2-((1-methyl-1H-pyrazol-5-yl)amino)pyridin-4-yl)indolin-1-yl)ethan-1-one]",4.8 nM

# Reference: patent publication US11465984B2, “Compound having ERK kinase inhibitory activity and use thereof” (SHANGHAI HAIHE PHARMACEUTICAL CO., LTD., priority 2017, dated 2022)
